Measured values taken from patent publication US7407982B2, “Oligo or polyalkylene glycol-coupled thrombin inhibitors” (HaemoSys GmbH, priority 2001, dated 2008).
Where two headings read alike, the source gives them in different places.

Experiments:
human α-thrombin = target: T1, human α-thrombin (Homo sapiens, UniProt P00734); assay: Determination of Ki for thrombin inhibition (chromogenic or fluorogenic substrate, Dixon); assay type: biochemical; conditions: for KiTrypsin/KiThrombin: Example 8, selectivity quotient
T1 construct: 50 μl human α-thrombin (Kordia); purchased Kordia
Description: The Ki values are the average values of at least three calculations.
For determining the thrombin inhibiting effect of all reversibly binding inhibitors and inhibitor conjugates with inhibiting constants smaller than 1 nM, a fluorescence spectrometer (LS50B from the company Perkin Elmer) was used. […] The Ki values are the average values of at least three calculations.

trypsin = target: T2, trypsin (Bos taurus, UniProt P00760); assay: Ki values for trypsin, determined analogously; assay type: biochemical; conditions: Table I, formula (II) compounds
T2 sequence (P00760 24-246): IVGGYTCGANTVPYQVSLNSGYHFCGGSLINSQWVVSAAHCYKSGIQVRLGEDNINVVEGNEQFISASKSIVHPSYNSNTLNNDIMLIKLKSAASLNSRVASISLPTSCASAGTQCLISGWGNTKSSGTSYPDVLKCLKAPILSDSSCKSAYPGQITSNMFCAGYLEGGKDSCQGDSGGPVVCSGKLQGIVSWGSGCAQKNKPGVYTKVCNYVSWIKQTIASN
Description: The Ki values for trypsin were determined analogously.
For optimizing the inhibitor conjugates, in particular of the following Examples 1 and 2, suitable groups R1 were sought which allow as strong a thrombin inhibition as possible. For examining the selectivity of the compounds, the inhibiting constants for trypsin were determined as well. The higher the quotient [KiTrypsin/KiThrombin], the more selectively the compound functions as a thrombin inhibitor. In order to facilitate the synthesis, this optimization was first carried out without coupling a polyalkylene glycol group to inhibitor molecules of formula (II) as listed in Table I. These compounds, which are active as thrombin inhibitors themselves, can be used as synthetic intermediates for the inhibitor conjugates of formula (I). As a central component, a glycyl-prolyl-dipeptide was consistently incorporated into the inhibitors.

[1] = Table I, formula (II) compounds
[2] = Example 8, read-out: KiThrombin
[3] = Table 2, formula (III) compounds

Molecule | Ki (human α-thrombin; [1]) [nM] | Ki Trypsin/Ki Thrombin (human α-thrombin; Table I, selectivity quotient) | other results
COc1ccc(S(=O)(=O)NCC(=O)N2CCC[C@H]2C(=O)NCc2ccc(C(=N)N)cc2)cc1Cl [1a] | 0.44 | 45 | 
CC(C)c1cc(C(C)C)c(S(=O)(=O)NCC(=O)N2CCC[C@H]2C(=O)NCc2ccc(C(=N)N)cc2)c(C(C)C)c1 [compound 19] | 13.5 | 0.67 | Ki (trypsin): 9.1 nM
CCc1ccc(S(=O)(=O)NCC(=O)N2CCC[C@H]2C(=O)NCc2ccc(C(=N)N)cc2)cc1 [compound 26] | 19.1 | 2.6 | 
N=C(N)c1ccc(CNC(=O)[C@@H]2CCCN2C(=O)CNS(=O)(=O)c2cc(Cl)cc(Cl)c2)cc1 [compound 11] | 8.5 | 0.4 | 
CC(C)(C)c1ccc(S(=O)(=O)NCC(=O)N2CCC[C@H]2C(=O)NCc2ccc(C(=N)N)cc2)cc1 [compound 29] | 32.2 | 0.32 | 
Cc1cc(C)c(S(=O)(=O)NCC(=O)N2CCC[C@H]2C(=O)NCc2ccc(C(=N)N)cc2)c(C)c1 [compound 24] | 16.6 | 0.80 | 
COc1ccc(S(=O)(=O)NCC(=O)N2CCC[C@H]2C(=O)NCc2ccc(C(=N)N)cc2)cc1C [1b] | 0.64 | 20 | 
N=C(N)c1ccc(CNC(=O)[C@@H]2CCCN2C(=O)CNS(=O)(=O)c2ccc(Cl)cc2Cl)cc1 [compound 21] | 15.1 | 1.2 | 
N=C(N)c1ccc(CNC(=O)[C@@H]2CCCN2C(=O)CNS(=O)(=O)c2ccc3ccccc3c2)cc1 [compound 12] | 8.5 | 6.8 | Ki Trypsin/Ki Thrombin (human α-thrombin; Table 2, selectivity quotient): 6.8
Cc1ccc(S(=O)(=O)NCC(=O)N2CCC[C@H]2C(=O)NCc2ccc(C(=N)N)cc2)cc1 [compound 22] | 16.1 | 0.88 | 
N=C(N)c1ccc(CNC(=O)[C@@H]2CCCN2C(=O)CNS(=O)(=O)c2ccc(Cl)c(Cl)c2)cc1 [4a] | 2.5 | 2.3 | 
N=C(N)N1CCC(CNC(=O)C2CCCN2C(=O)C(CC2CCCCC2)NCC(=O)O)CC1 [H-D-N(CH2—COOH)Cha-Pro-4-(amidomethyl)-N(amidino)piperidine, reference compound] |  |  | KiTrypsin/KiThrombin (human α-thrombin): 173; Ki (human α-thrombin; [2]): 1.3 nM
N=C(N)c1ccc(CNC(=O)[C@@H]2CCCN2C(=O)CNS(=O)(=O)c2ccc(Cl)c(Cl)c2Cl)cc1 [compound 23] | 16.4 | 0.71 | 
Cc1cc(Cl)cc(Cl)c1S(=O)(=O)NCC(=O)N1CCC[C@H]1C(=O)NCc1ccc(C(=N)N)cc1 [compound 25] | 16.9 | 1.1 | 
Cc1cc(S(=O)(=O)NCC(=O)N2CCC[C@H]2C(=O)NCc2ccc(C(=N)N)cc2)c(Cl)cc1Cl [compound 14] | 10.5 | 1.1. | 
COc1ccc(S(=O)(=O)NC(CC(=O)O)C(=O)N2CCCC2C(=O)NCc2ccc(C(=N)N)cc2)cc1 (stereo not drawn) [No. 55, 4-Methoxy-benezenesulfonyl-Asp-Pro-4-amidinobenzylamide] |  |  | KiTrypsin/KiThrombin (human α-thrombin): 48; Ki (human α-thrombin; [2]): 1.6 nM
N=C(N)c1ccc(CNC(=O)[C@@H]2CCCN2C(=O)CNS(=O)(=O)Cc2ccccc2)cc1 [compound 6] | 3.6 | 2.1 | 
COc1ccc(S(=O)(=O)N[C@@H](CC(=O)O)C(=O)N2CCC[C@H]2C(=O)NCc2ccc(C(=N)N)cc2)cc1 [compound 55] |  |  | Ki (human α-thrombin; [3]): 1.6 nM; Ki Trypsin/Ki Thrombin (human α-thrombin; Table 2, selectivity quotient): 48
N#Cc1ccc(S(=O)(=O)NCC(=O)N2CCC[C@H]2C(=O)NCc2ccc(C(=N)N)cc2)cc1 [compound 34] | 76 | 0.33 | 
N=C(N)c1ccc(CNC(=O)C2CCCN2C(=O)C(CO)NS(=O)(=O)c2ccc3ccccc3c2)cc1 (stereo not shown) [compound 38] |  |  | Ki (human α-thrombin; [3]): 2.54 nM; Ki Trypsin/Ki Thrombin (human α-thrombin; Table 2, selectivity quotient): 10.9
N=C(N)c1ccc(CNC(=O)[C@@H]2CCCN2C(=O)CNS(=O)(=O)c2cccc([N+](=O)[O-])c2)cc1 [compound 30] | 38 | 0.42 | 

Molecule | Ki (human α-thrombin; [1]) [nM] | Ki Trypsin/Ki Thrombin (human α-thrombin; Table I, selectivity quotient) | other results
N=C(N)c1ccc(CNC(=O)[C@@H]2CCCN2C(=O)CNS(=O)(=O)c2ccccc2)cc1 [compound 15] | 10.8 | 0.96 | 
N=C(N)c1ccc(CNC(=O)C2CCCN2C(=O)C(CC(N)=O)NS(=O)(=O)c2ccc3ccccc3c2)cc1 (stereo not shown) [compound 39] |  |  | Ki (human α-thrombin; [3]): 3.4 nM; Ki Trypsin/Ki Thrombin (human α-thrombin; Table 2, selectivity quotient): 11
COc1ccc(S(=O)(=O)NC(CCCCN)C(=O)N2CCCC2C(=O)NCc2ccc(C(=N)N)cc2)cc1 (stereo not drawn) [No. 53, 4-Methoxy-benezenesulfonyl-Lys-Pro-4-amidinobenzylamide] |  |  | KiTrypsin/KiThrombin (human α-thrombin): 112; Ki (human α-thrombin; [2]): 0.73 nM
N=C(N)c1ccc(CNC(=O)[C@@H]2CCCN2C(=O)CNS(=O)(=O)c2cc(Cl)c(Cl)cc2Cl)cc1 [compound 9] | 5.9 | 3.3 | 
Cc1c(C)c(C)c(S(=O)(=O)NCC(=O)N2CCC[C@H]2C(=O)NCc2ccc(C(=N)N)cc2)c(C)c1C [compound 16] | 12.7 | 2.2 | 
N=C(N)c1ccc(CNC(=O)[C@@H]2CCCN2C(=O)CNS(=O)(=O)c2cccc3ccccc23)cc1 [compound 10] | 7.8 | 0.5 | 
N#Cc1cccc(S(=O)(=O)NCC(=O)N2CCC[C@H]2C(=O)NCc2ccc(C(=N)N)cc2)c1 [33a] | 48 | 0.47 | 
N=C(N)c1ccc(CNC(=O)[C@@H]2CCCN2C(=O)CNS(=O)(=O)c2cccc(Cl)c2Cl)cc1 [compound 17] | 12.7 | 0.87 | 
N=C(N)c1ccc(CNC(=O)[C@@H]2CCCN2C(=O)CNS(=O)(=O)c2ccc([N+](=O)[O-])cc2)cc1 [compound 35] | 115 | 0.11 | 
N=C(N)c1ccc(CNC(=O)C2CCCN2C(=O)C(CC(=O)O)NS(=O)(=O)c2ccc3ccccc3c2)cc1 (stereo not shown) [compound 42] |  |  | Ki (human α-thrombin; [3]): 24.1 nM; Ki Trypsin/Ki Thrombin (human α-thrombin; Table 2, selectivity quotient): 2.9
N=C(N)c1ccc(CNC(=O)C2CCCN2C(=O)C(CC2CCCCC2)NCC(=O)O)cc1 [H-D-N(CH2—COOH)Cha-Pro-4-(amidino)benzylamide, reference compound] |  |  | KiTrypsin/KiThrombin (human α-thrombin): 12; Ki (human α-thrombin; [2]): 0.3 nM
4-Methoxy-benezenesulfonyl-Asn(4-[MeO-PEG5000-CH2CH2CO—NHCH2]-benzyl-Pro-4-amidinobenzylamide |  |  | Ki (human α-thrombin; [2]): 0.19 nM
N=C(N)c1ccc(CNC(=O)[C@@H]2CCCN2C(=O)CNS(=O)(=O)c2ccc(Cl)cc2)cc1 [compound 13] | 10 | 2.7 | 
N=C(N)c1ccc(CNC(=O)C2CCCN2C(=O)C(CCC(N)=O)NS(=O)(=O)c2ccc3ccccc3c2)cc1 (stereo not shown) [compound 40] |  |  | Ki (human α-thrombin; [3]): 3.8 nM; Ki Trypsin/Ki Thrombin (human α-thrombin; Table 2, selectivity quotient): 4.2
Cc1cccc(S(=O)(=O)NCC(=O)N2CCC[C@H]2C(=O)NCc2ccc(C(=N)N)cc2)c1 [4b] | 2.8 | 2.9 | 
N=C(N)c1ccc(CNC(=O)[C@@H]2CCCN2C(=O)CNS(=O)(=O)c2ccccc2Cl)cc1 [compound 27] | 19.3 | 0.98 | 
CCOc1ccc(S(=O)(=O)NCC(=O)N2CCC[C@H]2C(=O)NCc2ccc(C(=N)N)cc2)cc1 [33b] | 66 | 0.42 | 
N=C(N)c1ccc(CNC(=O)[C@@H]2CCCN2C(=O)CNS(=O)(=O)/C=C/c2ccccc2)cc1 [compound 32] | 44.3 | 0.05 | 
Cc1cc(C)c(C)c(S(=O)(=O)NCC(=O)N2CCC[C@H]2C(=O)NCc2ccc(C(=N)N)cc2)c1C [compound 18] | 13.4 | 2.5 | 
COc1ccc(S(=O)(=O)NC(CC(=O)NCc2cccc(C#N)c2)C(=O)N2CCCC2C(=O)NCc2ccc(C(=N)N)cc2)cc1 (stereo not shown) [compound 46] |  |  | Ki (human α-thrombin; [3]): 0.061 nM; Ki Trypsin/Ki Thrombin (human α-thrombin; Table 2, selectivity quotient): 1163
COc1ccc(S(=O)(=O)NCC(=O)N2CCC[C@H]2C(=O)NCc2ccc(C(=N)N)cc2)cc1OC [compound 8] | 4.7 | 4.2 | 
